# Source: US6565890B2, “Antiviral drugs containing heteropolyanions” (priority 2001, dated 2003)
# Experiments:
# Type in all cases: cell-based
# [1] = in vitro; conditions: for respective culture cells; read-out: toxicity CC50
# [2] = test system: HIV (human immunodeficiency virus); test: Inhibition of HIV cytopathic effect, MTT colorimetric method; conditions: HIV produced with either MT-4 cells or Hela CD4 cells; in words, figures only in FIG. 2
# Method: The antiviral effect against HIV (human immunodeficiency virus) and cytotoxicity of the PM-1001 and PM-1002 of this invention synthesized as described above were examined in comparison with those of K6[C0W12O40]. (called PM-1003), i.e., a heteropolyoxotungstate salt having perfect Keggin structure and conventional dextran sulfate (DS5000) and azidothymidine (AZT) respectively utilized because of their excellent anti-HIV effect. The inhibition of cell growth of HIV was measured according to the MTT colorimetric method.
# The tissue culture cells were MT-4 and Hela CD4. The HIV was prepared from the supernatant solutions of the culture fluids of HIV-producing MT-4 and HIV cells, or Hela CD4 and HIV cells. […] In the MTT colorimetry, the absorbance is measured by means of a colorimeter using a wavelength of 540 nm, to obtain the vital cell number proportional to the absorbance. If all the cells are dead due to virus infection, the absorbance becomes almost zero.
# (§1) With the concentration of each drug such as PM-1001 as a parameter, the cell growth rate was examined. […] That is, the drug concentration capable of improving the absorbance of […] up to 50% (to prevent cytocidal cell degeneration) is obtained and expressed in micromoles (μM). […] ND stands for “not determined”.
# [3] = test system: MT-4 and Hela CD4 cells; test: Cytotoxicity in the anti-HIV test, MTT colorimetric method; conditions: MT-4 cells or Hela CD4 cells; in words
# Method: The tissue culture cells were MT-4 and Hela CD4. The HIV was prepared from the supernatant solutions of the culture fluids of HIV-producing MT-4 and HIV cells, or Hela CD4 and HIV cells. The media were 10% fetal calf serum, and for culturing, 0.2 ml of MT-4 cells or Hela CD4 cells and 0.2 ml of HIV cells were placed in each well of a 24-well culture tray. After virus adsorption (the virus infectivity titer was 100-CCID50 per about 10^5 cells), each drug such as PM-1001 diluted in a medium was added, to make a total amount of 1.0 ml, and the mixture was cultured at 37° C. for 4 to 6 days. As controls, cells not infected with HIV and cells untreated with any drug such as PM-1001 were used. […] In the MTT colorimetry, the absorbance is measured by means of a colorimeter using a wavelength of 540 nm, to obtain the vital cell number proportional to the absorbance. If all the cells are dead due to virus infection, the absorbance becomes almost zero.
# as §1
# [4] = test system: DFV, FluV-A, RSV, PfluV, CDV, HIV; test: Spectrum of antiviral activity (FIG. 3), MTT colorimetric method; conditions: all viruses of FIG. 3; in words
Molecule,CC50 [1],potent efficacy against HIV [2],adverse effects (cytotoxicity) [3],"antiviral effects (FIG. 3, EC50 comparison) [4]"
NC(=O)c1ncn([C@@H]2O[C@H](CO)[C@@H](O)[C@H]2O)n1 [ribavirin],> 100 µM,,,
K6H6[(SbW9O33)2V3O3].29.5H2O [PM-1002],,very high potent efficacies,low adverse effects,remarkably excellent antiviral effects
K6H4[(SbW9O33)2V3O3].29.5H2O [PM-1001],,very high potent efficacies,low adverse effects,remarkably excellent antiviral effects
